Counter-ions that a name gives are not always drawn.
Assay: in vitro
Conditions: rat, gh3-tre-luc cells

SMILES	CC50 at 24 h (AC50 (uM) modified / 1000)	further results
c1cc2ccc3cccc4ccc(c1)c2c34 [Pyrene]		CC50 at 24 h (AC50 (uM) modified / 1000, Tox21_110001=Tox21_400063, viability, 1 nM T3 present, 24 h): > 100 µM
CNC(=O)OCc1cccc(COC(=O)NC)n1 [Pyricarbate]	> 50 µM	
CC(C)(C)c1ccc(CSc2cnn(C(C)(C)C)c(=O)c2Cl)cc1 [Pyridaben]	47.4 µM	
CCCCCCCCSC(=O)Oc1cc(Cl)nnc1-c1ccccc1 [Pyridate]	> 90 µM	
c1ccncc1 [Pyridine hydrochloride]	> 90 µM	
CN(C)C(=O)Oc1ccc[n+](C)c1 [Pyridostigmine bromide]	> 50 µM	
Cc1ncc(COP(=O)(O)O)c(C=O)c1O [Pyridoxal phosphate hydrate]	> 50 µM	
Cc1ncc(CO)c(C=O)c1O [Pyridoxal]	> 50 µM	
Cc1ncc(CO)c(CN)c1O [Pyridoxamine dihydrochloride]	> 50 µM	
Cc1ncc(COP(=O)(O)O)c(CN)c1O [Pyridoxamine phosphate]	> 50 µM	
Cc1ncc(CO)c(CO)c1O [Pyridoxine]	> 50 µM	
Cc1cc(C)nc(Nc2ccccc2)n1 [Pyrimethanil]	> 90 µM	
Sc1ncccn1 [Pyrimidine-2-thiol]	> 90 µM	
O=C(NCc1cccnc1)Nc1ccc([N+](=O)[O-])cc1 [Pyrinuron]		CC50 at 24 h (AC50 (uM) modified / 1000, Tox21_110001=Tox21_302252, viability, 1 nM T3 present, 24 h): 81.3 µM
CC(COc1ccc(Oc2ccccc2)cc1)Oc1ccccn1 (stereo not drawn) [Pyriproxyfen]	> 90 µM	
COc1cc(OC)nc(Sc2cccc(Cl)c2C(=O)O)n1 [Pyrithiobac-sodium]	> 90 µM	
Cc1ncc(CSSCc2cnc(C)c(O)c2CO)c(CO)c1O [Pyrithioxin dihydrochloride]	> 50 µM	
CCC1(CC)C(=O)C=CNC1=O [Pyrithyldione]		CC50 at 24 h (AC50 (uM) modified / 1000, Tox21_110001=Tox21_110368, viability, 1 nM T3 present, 24 h): > 50 µM
Oc1cccc(O)c1O [Pyrogallol]	44.6 µM	
O=C(O)c1cc(C(=O)O)c(C(=O)O)cc1C(=O)O [Pyromellitic acid]	> 90 µM	
Cc1cccc(C)c1NC(=O)CN1CCCC1 [Pyrrocaine]	> 50 µM	

SMILES	CC50 at 24 h (AC50 (uM) modified / 1000)	further results
O=[N+]([O-])c1c(Cl)cccc1-c1c[nH]cc1Cl [Pyrrolnitrin]	23.7 µM	
CC(=O)C(=O)O [Pyruvic acid]	> 90 µM	
CC(C(=O)O)c1ccc(C2CCCCC2)c2ccccc12 (stereo not drawn) [Quadrisol]	> 50 µM	
C[C@@H]1C(=O)NC2=Nc3cccc(Cl)c3CN21 [Quazinone]	> 50 µM	
CCc1ncnc2cc(OC)c(OC)cc12 [Quazodine]	> 50 µM	
O=c1c(O)c(-c2ccc(O)c(O)c2)oc2cc(O)cc(O)c12 [Quercetin dihydrate]	57 µM	
OCCOCCN1CCN(C2=Nc3ccccc3Sc3ccccc32)CC1 [Quetiapine]	> 50 µM	
OC(c1ccccc1)(c1ccccc1)C1CN2CCC1CC2 (stereo not drawn) [Quifenadine]	35.6 µM	
CCN(CC)CCCC(C)Nc1c2ccc(Cl)cc2nc2ccc(OC)cc12 (stereo not drawn) [Quinacrine dihydrochloride dihydrate]	> 50 µM	
Cc1ccc2ccccc2n1 [Quinaldine]	> 90 µM	
CCOP(=S)(OCC)Oc1cnc2ccccc2n1 [Quinalphos]		CC50 at 24 h (AC50 (uM) modified / 1000, Tox21_110001=Tox21_202028, viability, 1 nM T3 present, 24 h): > 90 µM
CCOC(=O)[C@H](CCc1ccccc1)N[C@@H](C)C(=O)N1Cc2ccccc2C[C@H]1C(=O)O [Quinapril hydrochloride]	> 90 µM	
O=C(O)c1c(Cl)ccc2cc(Cl)cnc12 [Quinclorac]	> 90 µM	
[O-][n+]1cc[n+]([O-])c2ccccc21 [Quindoxin]	> 50 µM	
CCCN1CCC[C@@H]2Cc3nc(N)ncc3C[C@H]21 [Quinelorane]	> 50 µM	
C#C[C@]1(O)CC[C@H]2[C@@H]3CCc4cc(OC5CCCC5)ccc4[C@H]3CC[C@@]21C [Quinestrol]	16 µM	
CCC1NC(=O)c2cc(S(N)(=O)=O)c(Cl)cc2N1 (stereo not drawn) [Quinethazone]	> 20 µM	
C=C[C@H]1C[N@@]2CC[C@H]1C[C@@H]2[C@@H](O)c1ccnc2ccc(OC)cc12 [Quinidine]	85.2 µM	
C=C[C@H]1CN2CC[C@H]1C[C@H]2[C@H](OC(=O)OCC)c1ccnc2ccc(OC)cc12 [Quinine ethyl carbonate]	> 50 µM	
C=C[C@H]1C[N@@]2CC[C@H]1C[C@H]2[C@H](O)c1ccnc2ccc(OC)cc12 [Quinine hemisulfate salt monohydrate]	> 50 µM	
Cc1cnc2c(C(=O)O)c(Cl)ccc2c1 [Quinmerac]	> 90 µM	

SMILES	CC50 at 24 h (AC50 (uM) modified / 1000)	further results
COc1cc(NCCCC(C)N)c2ncccc2c1 (stereo not drawn) [Quinocide]	15.1 µM	
c1ccc2ncccc2c1 [Quinoline]	> 90 µM	
O=C(O)c1cccnc1C(=O)O [Quinolinic acid]	> 90 µM	
c1ccc2nccnc2c1 [Quinoxaline]	> 90 µM	
Fc1ccc(Oc2ccnc3cc(Cl)cc(Cl)c23)cc1 [Quinoxyfen]	74.9 µM	
c1ccc2nc(N3CCNCC3)ccc2c1 [Quipazine maleate]	36.9 µM	
CCOC(=O)C(C)Oc1ccc(Oc2cnc3cc(Cl)ccc3n2)cc1 (stereo not drawn) [Quizalofop-ethyl]	> 90 µM	
CCCN1CCC[C@H](c2cccc(O)c2)C1 [R-3-PPP hydrochloride]	> 50 µM	
CC(C)=C1CC[C@@H](C)CC1=O [R-(+)-Pulegone]	> 90 µM	
C=CCC1([C@H](C)CCC)C(=O)NC(=O)NC1=O [R-(+)-Secobarbital]	> 90 µM	
COc1cc(C[C@@H](C)N)c(OC)cc1Br [R-(-)-2,5-Dimethoxy-4-bromoamphetamine hydrochloride]	56.1 µM	
COc1cc(C[C@@H](C)N)c(OC)cc1C [R-(-)-2,5-Dimethoxy-4-methylamphetamine hydrochloride]	41.9 µM	
C=C(C)[C@@H]1CC=C(C)C(=O)C1 [R-(-)-Carvone]	> 90 µM	
COCCCOc1ccnc(C[S+]([O-])c2nc3ccccc3[nH]2)c1C (stereo not drawn) [Rabeprazole sodium]	> 90 µM	
CC(=O)SCC(Cc1ccccc1)C(=O)NCC(=O)OCc1ccccc1 (stereo not drawn) [Racecadotril]	> 20 µM	
CCN1CCC[C@H]1CNC(=O)c1c(O)c(Cl)cc(Cl)c1OC [Raclopride]	> 50 µM	
CC(CCc1ccc(O)cc1)NCC(O)c1ccc(O)cc1 (stereo not drawn) [Ractopamine hydrochloride]	> 50 µM	
O=C(Nc1ccc(Oc2ccc(Cl)cc2)c(Cl)c1)c1cc(I)cc(I)c1O [Rafoxanide]	36.2 µM	
O=C(c1ccc(OCCN2CCCCC2)cc1)c1c(-c2ccc(O)cc2)sc2cc(O)ccc12 [Raloxifene]	3.84 µM	
Cc1nnc(C(=O)NC(C)(C)c2nc(C(=O)NCc3ccc(F)cc3)c(O)c(=O)n2C)o1 [Raltegravir]	> 50 µM	
Cc1nc2ccc(CN(C)c3ccc(C(=O)N[C@@H](CCC(=O)O)C(=O)O)s3)cc2c(=O)[nH]1 [Raltitrexed]	> 50 µM	

SMILES	CC50 at 24 h (AC50 (uM) modified / 1000)	further results
O=C(O)CCn1c2c(c3ccccc31)C[C@H](NS(=O)(=O)c1ccc(F)cc1)CC2 [Ramatroban]	> 50 µM	
CCC(=O)NCC[C@@H]1CCc2ccc3c(c21)CCO3 [Ramelteon]	> 50 µM	
Cc1c(NC(C)C)c(=O)n(-c2ccccc2)n1C [Ramifenazone]	> 50 µM	
CCOC(=O)[C@H](CCc1ccccc1)N[C@@H](C)C(=O)N1[C@H](C(=O)O)C[C@@H]2CCC[C@@H]21 [Ramipril]	> 50 µM	
Cn1cc(C(=O)[C@@H]2CCc3nc[nH]c3C2)c2ccccc21 [Ramosetron hydrochloride]	> 50 µM	
CN/C(=C\[N+](=O)[O-])NCCSCc1ccc(CN(C)C)o1 [Ranitidine]	> 90 µM	
COc1ccccc1OCC(O)CN1CCN(CC(=O)Nc2c(C)cccc2C)CC1 (stereo not drawn) [Ranolazine]	> 50 µM	
C=CC[N+]1([C@H]2C[C@H]3[C@@H]4CC[C@H]5C[C@H](OC(C)=O)[C@@H](N6CCCCC6)C[C@]5(C)[C@H]4CC[C@]3(C)[C@H]2OC(=O)CC)CCCCC1 [Rapacuronium bromide]	> 50 µM	
C#CCN[C@@H]1CCc2ccccc21 [Rasagiline mesylate]	> 50 µM	
COC(=O)[C@H]1[C@H]2C[C@H]3c4[nH]c5ccccc5c4CCN3C[C@H]2CC[C@@H]1O [Rauwolscine]	> 50 µM	
O=C(NC(Cc1cc(=O)[nH]c2ccccc12)C(=O)O)c1ccc(Cl)cc1 (stereo not drawn) [Rebamipide]	> 50 µM	
C=C1C[C@@]23CC[C@H]4[C@@](C)(CCC[C@@]4(C)C(=O)O[C@@H]4O[C@H](CO)[C@@H](O)[C@H](O)[C@H]4O)[C@@H]2CC[C@]1(O[C@@H]1O[C@H](CO)[C@@H](O)[C@H](O)[C@H]1O[C@@H]1O[C@H](CO)[C@@H](O)[C@H](O[C@@H]2O[C@H](CO)[C@@H](O)[C@H](O)[C@H]2O)[C@H]1O)C3 [Rebaudioside A]	> 90 µM	
COc1ccc(S(=O)(=O)N2c3ccc(Cl)cc3[C@](O)(c3ccccc3Cl)[C@@H]2C(=O)N2CCC[C@H]2C(N)=O)cc1OC [Relcovaptan]	> 50 µM	
CC(Cc1ccccc1)(NC(=O)CN)c1ccccc1 (stereo not drawn) [Remacemide hydrochloride]	> 50 µM	
CCN1CCC[C@H]1CNC(=O)c1c(OC)ccc(Br)c1OC [Remoxipride]	> 50 µM	
CCOc1cc(CC(=O)N[C@@H](CC(C)C)c2ccccc2N2CCCCC2)ccc1C(=O)O [Repaglinide]	> 20 µM	
CC(C)Cc1ccc([C@@H](C)C(=O)NS(C)(=O)=O)cc1 [Reparixin]	> 50 µM	
COC(=O)[C@H]1[C@H]2C[C@@H]3c4[nH]c5cc(OC)ccc5c4CCN3C[C@H]2C[C@@H](OC(=O)/C=C/c2cc(OC)c(OC)c(OC)c2)[C@@H]1OC [Rescinnamine]	> 20 µM	
CC(=O)Oc1cccc(O)c1 [Resorcinol monoacetate]	> 50 µM	
Oc1cccc(O)c1 [Resorcinol]	> 90 µM	
CC1=C(/C=C/C(C)=C/C=C/C(C)=C/C=O)C(C)(C)CCC1 [Retinal]	12.4 µM	

Reference: article PMC6792352, “Limited Chemical Structural Diversity Found to Modulate Thyroid Hormone Receptor in the Tox21 Chemical Library” (Environmental Health Perspectives, 2019)
